Results from EP2711008A1, “N6,N6-dimethyladenosine for use in treating or preventing primary and metastatic breast cancer” (priority 2012, dated 2014).

What was measured:
[1] = system: MCF-7 breast cancer cell line; assay: Tetrazolium dye proliferation (WST-1) assay in MCF-7 cells; format: cell-based; settings: 5 days incubation
Method: (§1) Determination of the ability of compound of formula (I) and combinations between compound of formula (I) and certain therapeutic compounds described herein to inhibit the proliferation of target cells was assayed in vitro against breast tumour cells.
(§2) MCF-7 cells were purchased from ATCC. PNT1A cells were purchased from ECACC. The cells were grown in a subconfluent condition to maintain a logarithmic growth phase. The cells were dislodged for passage using trypsin-EDTA.
(§3) The proliferation of the cell lines was evaluated by using the commercial WST-1 proliferation measurement reagent. Cells from exponentially growing cultures were plated on the 96 well plates at the appropriate seeding density in the optimal medium to give logarithmic growth over the course of the assay. […] Following incubation the absorbance at a wavelength of 450 nm was measured from each well using a multilabel counter. The absorbance at wavelength 450 nm correlates linearly to number of viable cells in the well.
(§4) The means and standard deviations for parallel samples were calculated and plotted as a graph.
(§5) The antiproliferative activity of compound of formula (I) was evaluated in vitro using tetrazolium dye proliferation assay in different cell lines: MCF-7 (breast cancer cell line, derived from pleura fluid) and PNT1A (normal prostate cell line, SV40 immortalized).

[2] = system: PNT1A immortalized normal prostate cell line; assay: Tetrazolium dye proliferation (WST-1) assay in PNT1A cells; format: cell-based; settings: Homo sapiens, 120 h, compared with 0.1 % DMSO vehicle control group, 5 days incubation, read-out: proliferation inhibitory effect
Method: as §1, §2, §3, §4, §5

pancreatic cancer cells = assay: Effect on other cancer cells: pancreatic; format: cell-based
[3] = system: L1210 leukemia cultured cells; settings: prior art (Kato et al 1986; Takamura et al 1989); cited from earlier work
[4] = system: malignant trophoblastic cell lines; settings: prior art (Trewyn et al. 1979); cited from earlier work
HL-60 cells = settings: prior art (Meisel et al. 1998; Mlejnek et al. 2005); cited from earlier work
Ehrlich ascites tumour = settings: prior art (Kato et al 1986; Takamura et al 1989); cited from earlier work
prostate cancer cells = assay: Effect on other cancer cells: prostate; format: cell-based

SMILES: CN(C)c1ncnc2c1ncn2[C@@H]1O[C@H](CO)[C@@H](O)[C@H]1O [Compound I, N6,N6-Dimethyladenosine]
- inhibition at 1 µM ([1]; Homo sapiens, MCF7, 120 h, compared with 0.1 % DMSO vehicle control group, 1 microM, read-out: proliferation inhibitory effect): 91.6 ± 2.1%
- proliferation inhibitory effect compared with Gemcitabine ([1]; relative to Gemcitabine (= 0)): 62.6±9.4%
- inhibition at 1 µM [2]: 17.4 ± 5.3%
- effect on pancreatic cancer cells (pancreatic cancer cells): no effect was detected
- antitumour activity in L1210 leukemia cultured cells [3]: inactive
- cytotoxicity to malignant trophoblastic cell lines [4]: cytotoxic
- apoptosis induction on HL-60 cells (HL-60 cells): apoptotic inductor
- antitumour activity against Ehrlich ascites tumour (Ehrlich ascites tumour): inactive
- effect on prostate cancer cells (prostate cancer cells): no effect was detected
